According to US20060089371A1, “Phenyl or heteroaryl amino alkane derivatives as ip receptor antagonist” (Bayer HealthCare AG, priority 2002, published 2006):

What was measured:
IP receptor = target: T1, IP receptor (Homo sapiens, UniProt P43119); assay: IP receptor binding/cAMP in HEL cells ([3H]-iloprost binding, Assay 1; iloprost-induced cAMP production, Assay 2); conditions: compounds of about 40 to 90% purity, read-out: In vitro activity grade (IC50 class)
T1 construct: one million cells in 160 μl aliquot of cell suspension were put in a well of 96 well plate; host or cells: HEL 92.1.7 human erythroleukemia cells (whole cells)
Experimental: [Measurement of the [^3H]-iloprost Binding to HEL Cells] (Assay 1)
A human erythloleukemia cell line, HEL 92.1.7, was purchased from American Type Culture Correction and maintained in RPMI-1640 medium (Gibco BRL) supplemented with 10% fetal calf serum (FCS), 2 mM glutamine, 4.5 g/L glucose, 10 mM Hepes, 1 mM sodium pyruvate, 100 U/ml penicillin, and 100 μg/ml streptomycin in a humidified 5% CO2 atmosphere at 37° C. Cells were collected with centrifugation and washed with binding assay buffer (BAB: 50 mM Tris-HCl, 5 mM MgCl2 (pH 7.5)). Cells were suspended at the density of 6.25×10^6 cells/ml in BAB, and one million cells in 160 μl aliquot of cell suspension were put in a well of 96 well plate (Falcon). Then, 20 μl of compound solution, 100 μM of iloprost (for non-specific binding), or buffer alone (total binding), diluted with 1% DMSO in BAB was added. Finally, another 20 μl containing [^3H]-iloprost (0.02 μCi, 0.5-1 pmol) in BAB was added and incubated at room temperature for 30 min with a gentle shaking. Cell suspension was then transferred to a well of MultiScreen plate with GF/C glass filters (Millipore) to harvest cells. Cells were washed twice with 200 μl of ice-cold BAB and the plate was kept at 55° C. for 30 min to dry filters. The filter in the well was punched out to a counting tube and 2 ml of Ultima Gold XR (Packard) was added. [^3H]-radio activity in the filter was measured by a liquid scintillation counter (Beckman, USA).
[Iloprost-Induced cAMP Production Assay in HEL Cells] (Assay 2)
HEL cells were collected with centrifugation and washed with cAMP assay buffer (CAB: Hank's balanced salt solution, 17 mM Hepes, 0.1% bovine serum albumin, 1 mM IBMX, 0.4% DMSO, and 1 mM L-ascorbic acid sodium salt (pH 7.4)). Cells were suspended at the density of 2.5×10^5 cells/ml in CAB, and twenty thousand cells in 80 μl aliquot of cell suspension were put in a well of 96 well plate (Falcon). Then, 10 μl of compound solution diluted with 1% DMSO in CAB or buffer alone was added. The plate was incubated at 37° C. for 30 min. Then, another 10 μl containing 100 nM iloprost in CAB or buffer alone was added and further incubated at 37° C. for 30 min. cAMP content in the well was measured by a cAMP ELISA kit (Applied Biosystems, USA).
The data corresponds to the compounds as yielded by solid phase synthesis and thus to levels of purity of about 40 to 90%. For practical reasons, the compounds are grouped in three classes of activity as follows: IC50=A<0.1 μM≦B<1 μM≦C

T1 sequence (P43119 whole entry): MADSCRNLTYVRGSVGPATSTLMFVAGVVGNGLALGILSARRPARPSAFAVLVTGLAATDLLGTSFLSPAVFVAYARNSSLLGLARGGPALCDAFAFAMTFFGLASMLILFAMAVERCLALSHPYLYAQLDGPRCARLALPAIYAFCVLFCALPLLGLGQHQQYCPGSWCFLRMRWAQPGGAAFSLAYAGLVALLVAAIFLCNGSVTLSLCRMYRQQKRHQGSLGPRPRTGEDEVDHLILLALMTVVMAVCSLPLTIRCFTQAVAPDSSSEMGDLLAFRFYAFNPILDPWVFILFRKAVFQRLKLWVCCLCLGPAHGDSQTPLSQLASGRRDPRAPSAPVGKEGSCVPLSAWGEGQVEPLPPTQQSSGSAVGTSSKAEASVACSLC

| IC50 (IP receptor) | melting point | Compound |
| --- | --- | --- |
| < 100 nM | 175 to 178 °C | O=C(O)C(Cc1ccccc1)Nc1cc(-c2ccc(OCc3ccccc3)cc2)ncn1 (stereo not shown) [Example 1-7] |
| < 100 nM | 214 to 217 °C (dec.) | O=C(O)C(Cc1ccccc1)Nc1cc(-c2ccc(Oc3ccccc3)cc2)ncn1 (stereo not shown) [Example 1-8] |
| > 1000 nM | < 80 °C | O=C(O)C(Cc1ccccc1)Nc1ncnc(-c2ccc(OCc3ccccc3)cc2)c1[N+](=O)[O-] (stereo not shown) [Example 1-9] |
| < 100 nM | 146 to 148 °C (dec.) | O=C(O)C(Cc1ccccc1)Nc1cc(-c2ccc(-c3ccccc3)cc2)ncn1 (stereo not shown) [Example 1-10] |
| 100 to 1000 nM | 56 °C | CCC(C)C(Nc1cc(-c2ccc(OCc3ccccc3)cc2)ncn1)C(=O)O (stereo not shown) [Example 1-11] |
| < 100 nM | 186 °C | O=C(O)C(Cc1ccc(F)cc1)Nc1cc(-c2ccc(OCc3ccccc3)cc2)ncn1 (stereo not shown) [Example 1-12] |
| < 100 nM | 187 °C | CCCCC(Nc1cc(-c2ccc(OCc3ccccc3)cc2)ncn1)C(=O)O (stereo not shown) [Example 1-13] |
| < 100 nM | 226 to 228 °C | O=C(O)C(CCc1ccccc1)Nc1cc(-c2ccc(OCc3ccccc3)cc2)ncn1 (stereo not shown) [Example 1-14] |
| 100 to 1000 nM | 244 to 246 °C | CC(C)CC(Nc1cc(-c2ccc(OCc3ccccc3)cc2)ncn1)C(=O)O (stereo not shown) [Example 1-15] |
| 100 to 1000 nM | 235 to 237 °C | CC(C)C(Nc1cc(-c2ccc(OCc3ccccc3)cc2)ncn1)C(=O)O (stereo not shown) [Example 1-16] |
| < 100 nM | 210 °C | CSCCC(Nc1cc(-c2ccc(OCc3ccccc3)cc2)ncn1)C(=O)O (stereo not shown) [Example 1-17] |
| 100 to 1000 nM | 158 °C | CC(Nc1cc(-c2ccc(OCc3ccccc3)cc2)ncn1)C(=O)O (stereo not shown) [Example 1-18] |
| < 100 nM | 187 °C | CC(Cc1ccccc1)(Nc1cc(-c2ccc(OCc3ccccc3)cc2)ncn1)C(=O)O (stereo not shown) [Example 1-19] |
| < 100 nM | 145 to 146 °C | O=C(O)C(Cc1ccccc1)Nc1ncnc(-c2ccc(OCc3ccccc3)cc2)c1F (stereo not shown) [Example 1-20] |
| < 100 nM | 150 to 153 °C (dec.) | O=C(O)C(Cc1ccc(Cl)cc1)Nc1cc(-c2ccc(OCc3ccccc3)cc2)ncn1 (stereo not shown) [Example 1-22] |
| < 100 nM | 155 °C | C#CCC(Nc1cc(-c2ccc(OCc3ccccc3)cc2)ncn1)C(=O)O (stereo not shown) [Example 1-23] |
| 100 to 1000 nM | 138 °C | CS(=O)(=O)CCC(Nc1cc(-c2ccc(OCc3ccccc3)cc2)ncn1)C(=O)O (stereo not shown) [Example 1-24] |
| < 100 nM | 211 °C | O=C(O)C(Cc1ccc([N+](=O)[O-])cc1)Nc1cc(-c2ccc(OCc3ccccc3)cc2)ncn1 (stereo not shown) [Example 1-25] |
| < 100 nM | 233 to 236 °C | O=C(O)C(Cc1ccc(O)cc1)Nc1cc(-c2ccc(OCc3ccccc3)cc2)ncn1 (stereo not shown) [Example 1-26] |
| 100 to 1000 nM | 211 to 214 °C | CC(O)C(Nc1cc(-c2ccc(OCc3ccccc3)cc2)ncn1)C(=O)O (stereo not shown) [Example 1-27] |
| < 100 nM | 135 to 137 °C | C=CCC(Nc1cc(-c2ccc(OCc3ccccc3)cc2)ncn1)C(=O)O (stereo not shown) [Example 1-28] |
| < 100 nM | 145 °C | Nc1ccc(CC(Nc2cc(-c3ccc(OCc4ccccc4)cc3)ncn2)C(=O)O)cc1 (stereo not shown) [Example 1-29] |
| < 100 nM | 186 to 188 °C | O=C(O)C(Cc1ccccc1)Nc1ncnc(-c2ccc(OCc3ccccc3)cc2)n1 (stereo not shown) [Example 1-30] |
| < 100 nM | 218 to 223 °C | O=C(O)C(Cc1ccccn1)Nc1cc(-c2ccc(OCc3ccccc3)cc2)ncn1 (stereo not shown) [Example 1-31] |
| < 100 nM | 156 to 158 °C | O=C(O)C(CC(F)(F)F)Nc1cc(-c2ccc(OCc3ccccc3)cc2)ncn1 (stereo not shown) [Example 1-32] |

| IC50 (IP receptor) | melting point | Compound |
| --- | --- | --- |
| < 100 nM | 132 to 135 °C | O=C(O)C(COCc1ccccc1)Nc1cc(-c2ccc(OCc3ccccc3)cc2)ncn1 (stereo not shown) [Example 1-33] |
| < 100 nM | 115 to 120 °C | COCC(Nc1cc(-c2ccc(OCc3ccccc3)cc2)ncn1)C(=O)O (stereo not shown) [Example 1-34] |
| > 1000 nM | 265 to 267 °C | CC(Cc1cccc(O)c1)(Nc1cc(-c2ccc(OCc3ccccc3)cc2)ncn1)C(=O)O (stereo not shown) [Example 1-35] |
| < 100 nM | 170 to 173 °C | O=C(O)C(Cc1ccccc1)Nc1ncnc(-c2ccc(OCC3CC3)cc2)c1F (stereo not shown) [Example 1-36] |
| 100 to 1000 nM | 183 to 188 °C | O=C(O)C(Cc1c[nH]cn1)Nc1cc(-c2ccc(OCc3ccccc3)cc2)ncn1 (stereo not shown) [Example 1-39] |
| < 100 nM | 166 to 169 °C | O=C(O)C(Cc1ccc(Cl)cc1)Nc1cc(-c2ccc(OCC3CC3)cc2)ncn1 (stereo not shown) [Example 1-40] |
| 100 to 1000 nM | 100 to 104 °C | CCCCC(Nc1cc(-c2ccc(OCC3CC3)cc2)ncn1)C(=O)O (stereo not shown) [Example 1-41] |
| < 100 nM | 126 to 128 °C | O=C(O)C(Cc1ccc(F)cc1)Nc1cc(-c2ccc(OCC3CC3)cc2)ncn1 (stereo not shown) [Example 1-42] |
| > 1000 nM | 150 to 152 °C | O=C(O)C(Cc1ccccc1)Nc1cc(-c2cccc(OCc3ccccc3)c2)ncn1 (stereo not shown) [Example 1-43] |
| 100 to 1000 nM | 105 to 107 °C | O=C(O)C(Cc1ccccn1)Nc1cc(-c2ccc(OCC3CC3)cc2)ncn1 (stereo not shown) [Example 1-44] |
| < 100 nM | 177 to 178 °C | O=C(O)C(Cc1ccccn1)Nc1ncnc(-c2ccc(OCc3ccccc3)cc2)c1F (stereo not shown) [Example 1-45] |
| < 100 nM | 107 °C | O=C(O)C(Cc1ccccn1)Nc1cc(-c2ccc(OCc3ccccc3)c(F)c2)ncn1 (stereo not shown) [Example 1-46] |
| < 100 nM | 117 to 120 °C | O=C(O)C(Cc1ccccc1)Nc1cc(-c2ccc(OCc3ccccc3)c(F)c2)ncn1 (stereo not shown) [Example 1-47] |
| < 100 nM | 188 to 192 °C | O=C(O)C(Cc1cccnc1)Nc1cc(-c2ccc(OCc3ccccc3)cc2)ncn1 (stereo not shown) [Example 1-48] |
| > 1000 nM | 180 to 185 °C | O=C(O)[C@H](Cc1ccccc1)Nc1cc(-c2ccc(OCC3CC3)cc2)ncn1 [Example 1-49] |
| 100 to 1000 nM | 150 to 155 °C | O=C(O)[C@H](Cc1ccccc1)Nc1cc(-c2ccc(OCc3ccccc3)cc2)ncn1 [Example 1-50] |
| 100 to 1000 nM | 110 to 120 °C | CCCCC(Nc1cc(-c2ccc(-c3ccccc3)cc2)ncn1)C(=O)O (stereo not shown) [Example 1-56] |
| 100 to 1000 nM | 133 to 136 °C | O=C(O)C(Cc1ccccc1)Nc1cc(-c2ccc(OCc3ccccc3)cc2F)ncn1 (stereo not shown) [Example 1-57] |
| < 100 nM | 112 to 115 °C | CN(c1cc(-c2ccc(OCc3ccccc3)cc2)ncn1)C(Cc1ccccc1)C(=O)O (stereo not shown) [Example 1-58] |
| < 100 nM | 216 to 218 °C | O=C(O)[C@H](Cc1ccccc1)Nc1cc(-c2ccc(OCC3CC3)cc2)ncn1 [Example 2-1, N-{6-[4-(Cyclopropylmethoxy)phenyl]pyrimidin-4-yl}phenylalanine] |
| < 100 nM | 90 to 93 °C | COc1cc(COc2ccc(-c3cc(NC(Cc4ccccc4)C(=O)O)ncn3)cc2)cc(OC)c1 (stereo not shown) [Example 2-2] |
| < 100 nM | 175 to 177 °C | O=C(O)C(Cc1ccccc1)Nc1cc(-c2ccc(OCc3cccc(F)c3)cc2)ncn1 (stereo not shown) [Example 2-3] |
| < 100 nM | 90 to 93 °C | COc1cccc(COc2ccc(-c3cc(NC(Cc4ccccc4)C(=O)O)ncn3)cc2)c1 (stereo not shown) [Example 2-4] |
| > 1000 nM | 223 to 227 °C | O=C(O)C(Cc1ccccc1)Nc1cc(-c2ccc(O)cc2)ncn1 (stereo not shown) [Example 2-5] |
| < 100 nM | 220 to 223 °C (dec.) | O=C(O)C(Cc1ccccc1)Nc1cc(-c2ccc(OCc3ccccc3F)cc2)ncn1 (stereo not shown) [Example 2-6] |
